Measurements published in ChEMBL document CHEMBL1149146, “Synthesis and biological evaluation of new 1,2-dihydro-4-hydroxy-2-oxo-3-quinolinecarboxamides for treatment of autoimmune disorders: structure-activity relationship” (2004).

Columns and labels:
Assay type in all cases: functional
[1] = test system: Mus musculus; assay: Inhibition of acute experimental autoimmune encephalomyelitis in SJL/N mice by 1 mg/kg/day p.o./s.c.; conditions: route oral
[2] = test system: Mus musculus; assay: Inhibition of acute experimental autoimmune encephalomyelitis in SJL/N mice by 0.2 mg/kg/day p.o./s.c.; conditions: po
[3] = test system: Mus musculus; assay: Inhibition of acute experimental autoimmune encephalomyelitis in SJL/N mice by 5 mg/kg/day p.o./s.c.; conditions: route oral
[4] = test system: Mus musculus; assay: Inhibition of acute experimental autoimmune encephalomyelitis (aEAE) induced in SJL/N mice at a dose of 1 mg/kg/day, (po)
[5] = test system: Mus musculus; assay: Inhibition of acute experimental autoimmune encephalomyelitis in SJL/N mice by 0.2 mg/kg/day p.o.; conditions: route oral
[6] = test system: Mus musculus; assay: Inhibition of acute experimental autoimmune encephalomyelitis (aEAE) induced in SJL/N mice at a dose of 5 mg/kg/day, (sc) was determined; Inactive
[7] = test system: Mus musculus; assay: Inhibition of acute experimental autoimmune encephalomyelitis in SJL/N mice by 5 mg/kg/day p.o.; conditions: route oral
[8] = test system: Mus musculus; assay: Inhibition of acute experimental autoimmune encephalomyelitis (aEAE) induced in SJL/N mice at a dose of 0.2 mg/kg/day, (po) was determined; Inactive
[9] = test system: Mus musculus; assay: Inhibition of acute experimental autoimmune encephalomyelitis (aEAE) induced in SJL/N mice at a dose of 5 mg/kg/day, (sc) was determined
[10] = test system: Mus musculus; assay: Inhibition of acute experimental autoimmune encephalomyelitis (aEAE) induced in SJL/N mice at a dose of 1 mg/kg/day, (po) was determined; Inactive

| Compound | inhibition in vivo at 1 mg/kg/day [1] | inhibition in vivo at 0.2 mg/kg/day [2] | inhibition in vivo at 5 mg/kg/day [3] | inhibition in vivo at 1 mg/kg/day [4] | inhibition in vivo at 0.2 mg/kg/day [5] | inhibition in vivo at 5 mg/kg/day [7] | other results |
| --- | --- | --- | --- | --- | --- | --- | --- |
| COc1cccc(N(C)C(=O)c2c(O)c3c(OC)cccc3n(C)c2=O)c1 | 90% | 35% | 85% | – | – | – | – |
| CN(C(=O)c1c(O)c2cc(C(F)(F)F)ccc2n(C)c1=O)c1ccccc1 | 100% | 67% | 100% | – | – | – | – |
| COc1cccc2c1c(O)c(C(=O)N(C)c1c(F)cccc1F)c(=O)n2C | – | – | – | 43% | 28% | – | – |
| COc1ccc2c(c1)c(O)c(C(=O)N(C)c1ccccc1)c(=O)n2C | 100% | 83% | 100% | – | – | – | – |
| COc1ccc2nc(O)c(C(=O)N(C)c3ccc(F)cc3)c(O)c2c1 | – | – | – | – | – | – | inhibition in vivo at 5 mg/kg/day [6]: < 35% |
| CN(C(=O)c1c(O)c2cc(F)ccc2n(C)c1=O)c1ccc(F)cc1 | 77% | – | 93% | – | – | – | – |
| Cc1cccc2c1c(O)c(C(=O)N(C)c1ccccc1)c(=O)n2C | 100% | 95% | 97% | – | – | – | – |
| CCN(C(=O)c1c(O)c2c(SC)cccc2n(C)c1=O)c1ccccc1 | – | – | – | 73% | 51% | 99% | – |
| COc1cccc2c1c(O)c(C(=O)N(C)c1ccc(Cl)cc1)c(=O)n2C | 70% | 77% | 89% | – | – | – | – |
| CCN(C(=O)c1c(O)c2c(OC)cccc2n(C)c1=O)c1ccccc1 | 73% | 69% | 86% | – | – | – | – |
| CCN(C(=O)c1c(O)c2c(Br)cccc2n(C)c1=O)c1ccccc1 | – | – | – | 95% | 57% | – | – |
| COc1cccc2c1c(O)c(C(=O)N(C)c1ccccc1Cl)c(=O)n2C | – | – | – | 50% | – | 68% | inhibition in vivo at 0.2 mg/kg/day [8]: < 35% |
| COc1cccc2c1c(O)c(C(=O)N(C)c1ccc(F)cc1)c(=O)n2C | – | 92% | 93% | – | – | – | – |
| Cc1ccc2c(O)c(C(=O)N(C)c3ccccc3)c(=O)n(C)c2c1 | – | – | – | – | – | – | inhibition in vivo at 5 mg/kg/day [9]: 53% |
| COc1cccc2c1c(O)c(C(=O)N(C)c1ccccc1F)c(=O)n2C | – | – | – | 82% | 94% | 100% | – |
| COc1cccc2c1c(O)c(C(=O)N(C)c1ccc(C(C)(C)C)cc1)c(=O)n2C | – | – | – | 84% | 60% | 98% | – |
| CN(C(=O)c1c(O)c2cc(Cl)ccc2n(C)c1=O)c1ccccc1 | 100% | 81% | 100% | – | – | – | – |
| CC(C)N(C(=O)c1c(O)c2c(Cl)cccc2n(C)c1=O)c1ccccc1 | – | – | – | 54% | – | 70% | inhibition in vivo at 0.2 mg/kg/day [8]: < 35% |
| CN(C(=O)c1c(O)c2ccc(C(F)(F)F)cc2n(C)c1=O)c1ccc(F)cc1 | – | – | – | – | – | – | inhibition in vivo at 5 mg/kg/day [9]: 35% |
| COc1cccc2c1c(O)c(C(=O)N(C)c1cccc(F)c1F)c(=O)n2C | – | – | – | – | – | – | inhibition in vivo at 1 mg/kg/day [10]: < 35%; inhibition in vivo at 0.2 mg/kg/day [8]: < 35% |
| CCN(C(=O)c1c(O)c2c(C(F)(F)F)cccc2n(C)c1=O)c1ccccc1 | – | – | – | 80% | 49% | – | – |
| COc1ccccc1N(C)C(=O)c1c(O)c2c(OC)cccc2n(C)c1=O | – | – | – | – | – | – | inhibition in vivo at 1 mg/kg/day [10]: < 35%; inhibition in vivo at 0.2 mg/kg/day [8]: < 35% |
| COc1cccc2c1c(O)c(C(=O)N(C)c1cc(F)ccc1F)c(=O)n2C | – | – | – | 90% | 62% | 95% | – |
| COc1cccc2c1c(O)c(C(=O)N(C)c1cccc(Cl)c1)c(=O)n2C | – | – | – | 85% | 54% | 71% | – |
| CN(C(=O)c1c(O)c2ccccc2n(-c2ccccc2)c1=O)c1ccccc1 | – | – | – | – | – | – | inhibition in vivo at 5 mg/kg/day [6]: < 35% |
| COc1cccc2c(O)c(C(=O)N(C)c3ccccc3)c(=O)n(C)c12 | – | – | – | – | – | – | inhibition in vivo at 5 mg/kg/day [6]: < 35% |
| COc1cccc2c1c(O)c(C(=O)N(C)c1ccccc1)c(=O)n2C | 95% | 79% | 96% | – | – | – | – |
| CN(C)c1cccc2c1c(O)c(C(=O)N(C)c1ccccc1)c(=O)n2C | – | – | – | 93% | 58% | 100% | – |
| CCOc1cccc2c1c(O)c(C(=O)N(C)c1ccccc1)c(=O)n2C | – | – | – | 40% | 44% | 76% | – |
